For orientation: MIC means the least concentration at which growth counts as inhibited.

The text below walks through data of patent US20080269214A1, “Pyrrole Derivatives as Dna Gyrase and Topoisomerase Inhibitors” (ASTRAZENECA AB, priority 2005, published 2008).

Each structure is given as a SMILES string. In brackets after ≈: the same amount, converted by molar mass.

Holding throughout (assay): Bacterial susceptibility testing in liquid media (MIC)
The subject of one assay is HIN446. The format is cell-based. Particulars: strain HIN446; no unit printed in table (b320 text uses μg/ml); growth reduced by 80% or more, 24 hrs. The procedure:
(§1) Compounds were tested for antimicrobial activity by susceptibility testing in liquid media. Compounds were dissolved in dimethylsulfoxide and tested in 10 doubling dilutions in the susceptibility assays. The organisms used in the assay were grown overnight on suitable agar media and then suspended in a liquid medium appropriate for the growth of the organism. The suspension was a 0.5 McFarland and a further 1 in 10 dilution was made into the same liquid medium to prepare the final organism suspension in 100 µL. Plates were incubated under appropriate conditions at 37 degrees C. for 24 hrs prior to reading. The Minimum Inhibitory Concentration was determined as the lowest drug concentration able to reduce growth by 80% or more.

Another assay deals with SAU516. The class given is cell-based. Conditions: strain SAU516; no unit printed in table (b320 text uses μg/ml); growth reduced by 80% or more, 24 hrs. As for the experimental part: as §1
In another assay the test system is SPN548. The class given is cell-based, Streptococcus pneumoniae. Particulars: strain SPN548; no unit printed in table (b320 text uses μg/ml); growth reduced by 80% or more, 24 hrs. As for the experimental part:
as §1

The next assay deals with Streptococcus pneumoniae. The class given is cell-based. Conditions: lowest concentration reducing growth by 80% or more, 37 degrees C., 24 hrs, read-out: MIC against Streptococcus pneumoniae. As for the experimental part:
as §1

For the compound `Cc1[nH]c(C(=O)Nc2ccc(-c3cncc(C(=O)O)c3)cc2)c(Cl)c1Cl` [Example 23, 5-[4-[[(3,4-Dichloro-5-methyl-1H-pyrrol-2-yl)carbonyl]amino]phenyl]-3-pyridinecarboxylic acid], in the assay on HIN446, the “MIC HIN446” value was 2. Also, in the assay with SAU516, the “MIC SAU516” value is 4. For the same compound, the “MIC SPN548” value in the assay with SPN548 turned out to be 0.13.

With `COc1ncc(-c2ccc(NC(=O)c3[nH]c(C)c(Cl)c3Cl)cc2)cc1C(=O)O` [Example 30, 5-(4-{[(3,4-Dichloro-5-methyl-1H-pyrrol-2-yl)carbonyl]amino}phenyl)-2-methoxynicotinic acid], in the assay on Streptococcus pneumoniae, the MIC turned out to be 1 µg/mL (≈ 2.38 µM).

Take `Cc1[nH]c(C(=O)Nc2ccc(-c3cc(C(=O)O)ccn3)cc2)c(Cl)c1Cl` [Example 27, 2-(4-{[(3,4-Dichloro-5-methyl-1H-pyrrol-2-yl)carbonyl]amino}phenyl)isonicotinic acid]: the “MIC HIN446” value against HIN446 was 2. Moreover, in the assay with SAU516, the “MIC SAU516” value is given as 2. Also, the “MIC SPN548” value with SPN548 worked out at 0.13.

Turning to `Cc1[nH]c(C(=O)Nc2ccc(-c3ccc(C(=O)O)o3)cc2)c(Cl)c1Cl` [Example 36, 5-(4-{[(3,4-Dichloro-5-methyl-1H-pyrrol-2-yl)carbonyl]amino}phenyl)-2-furoic acid], in the assay with HIN446, the “MIC HIN446” value was 1. In addition, the “MIC SAU516” value with SAU516 came out at 2. In addition, the “MIC SPN548” value in the assay with SPN548 is 0.25.

On to `CNc1ncc(-c2ccc(NC(=O)c3[nH]c(C)c(Cl)c3Cl)cc2)cc1C(=O)O` [Example 25, 5-(4-{[(3,4-Dichloro-5-methyl-1H-pyrrol-2-yl)carbonyl]amino}phenyl)-2-(methylamino)nicotinic acid], for which, in the assay with HIN446, the “MIC HIN446” value was found to be 4. In addition, in the assay with SAU516, the “MIC SAU516” value turned out to be 2. The “MIC SPN548” value with SPN548 was 1.

For the compound `Cc1[nH]c(C(=O)Nc2ccc(-c3cnc(Cl)c(C(=O)O)c3)cc2)c(Cl)c1Cl` [Example 26, 2-Chloro-5-(4-{[(3,4-dichloro-5-methyl-1H-pyrrol-2-yl)carbonyl]amino}phenyl)nicotinic acid], the “MIC HIN446” value against HIN446 is recorded as 8. For the same compound, the “MIC SAU516” value with SAU516 amounted to 32. In addition, the “MIC SPN548” value with SPN548 turned out to be 1.
